# Where two headings read alike, the source gives them in different places.
# What was measured:
# Assay type in all cases: in vivo
# [1] = tested on: Surinam grass (Brachiaria decumbens); experiment: Test B pre/postemergence; settings: Urochloa decumbens; for pest or weed control at 62 g/ha: 62 g ai/ha; for pest or weed control at 250 g/ha: 250 g ai/ha
# How it was run: (§1)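 Following sowing, compounds in a surfactant-bearing non-phytotoxic solvent were applied preemergence; emerged plants 2 to 18 cm high got postemergence treatment concurrently. Evaluation: 13 to 15 days later, greenhouse, 0–100 visual scale.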
# [2] = tested on: barnyardgrass (Echinochloa crus-galli); experiment: Test B pre/postemergence; settings: Echinochloa crus-galli; for pest or weed control at 62 g/ha: 62 g ai/ha; for pest or weed control at 250 g/ha: 250 g ai/ha
# How it was run: as §1
# [3] = tested on: cocklebur (Xanthium strumarium); experiment: Test B pre/postemergence; settings: Xanthium strumarium; for pest or weed control at 62 g/ha: 62 g ai/ha; for pest or weed control at 250 g/ha: 250 g ai/ha
# How it was run: as §1
# [4] = tested on: corn (Zea mays); experiment: Test B pre/postemergence; settings: Zea mays; for Corn plant response rating (crop injury, 0 = no effect, 100 = complete kill) at 250 g/ha: 250 g ai/ha
# How it was run: as §1
# [5] = tested on: crabgrass (Digitaria sanguinalis); experiment: Test B pre/postemergence; settings: Digitaria sanguinalis; for pest or weed control at 62 g/ha: 62 g ai/ha; for pest or weed control at 250 g/ha: 250 g ai/ha
# How it was run: as §1
# [6] = tested on: giant foxtail (Setaria faberii); experiment: Test B pre/postemergence; settings: Setaria faberi; for pest or weed control at 62 g/ha: 62 g ai/ha; for pest or weed control at 250 g/ha: 250 g ai/ha
# How it was run: as §1
# [7] = tested on: lambsquarters (Chenopodium album); experiment: Test B pre/postemergence; settings: Chenopodium album; for pest or weed control at 62 g/ha: 62 g ai/ha; for pest or weed control at 250 g/ha: 250 g ai/ha
# How it was run: as §1
# [8] = tested on: morningglory (Ipomoea coccinea); experiment: Test B pre/postemergence; settings: Ipomoea; for pest or weed control at 62 g/ha: 62 g ai/ha; for pest or weed control at 250 g/ha: 250 g ai/ha
# How it was run: as §1
# [9] = tested on: pigweed (Amaranthus retroflexus); experiment: Test B pre/postemergence; settings: Amaranthus retroflexus; for pest or weed control at 62 g/ha: 62 g ai/ha; for pest or weed control at 250 g/ha: 250 g ai/ha
# How it was run: as §1
# [10] = tested on: velvetleaf (Abutilon theophrasti); experiment: Test B pre/postemergence; settings: Abutilon theophrasti; for pest or weed control at 62 g/ha: 62 g ai/ha; for pest or weed control at 250 g/ha: 250 g ai/ha
# How it was run: as §1
# [11] = tested on: wheat (Triticum aestivum); experiment: Test B pre/postemergence; settings: Triticum aestivum; for plant injury at 62 g/ha: 62 g ai/ha; for plant injury at 250 g/ha: 250 g ai/ha
# How it was run: as §1
# [12] = tested on: blackgrass (Alopecurus myosuroides); experiment: Test B postemergence; settings: Alopecurus myosuroides, post-emergence
# How it was run: as §1
# [13] = tested on: wild oat (Avena fatua); experiment: Test B postemergence; settings: Avena fatua, post-emergence
# How it was run: as §1
# [14] = tested on: barnyardgrass (Echinochloa crus-galli); experiment: Test B flooded paddy test; settings: Echinochloa crus-galli, Flood, 1000 g ai/ha; scale 0 (no effect) to 100 (complete control); read-out: Plant response rating, Barnyardgrass
# How it was run: (§2)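 Plants were grown to the 2-leaf stage before treatment, then kept in a greenhouse for 13 to 15 days. Injury was rated visually against untreated controls on a 0 to 100 scale, where 0 is no effect and 100 is complete control.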
# [15] = tested on: duck salad (Heteranthera limosa); experiment: Test B flooded paddy test; settings: Heteranthera limosa, Flood, 1000 g ai/ha; scale 0 to 100; read-out: Plant response rating, Ducksalad
# How it was run: as §2
# [16] = tested on: rice (Oryza sativa); experiment: Test B flooded paddy test; settings: Oryza sativa, Flood, 1000 g ai/ha; scale 0 to 100; read-out: Plant response rating, Rice
# How it was run: as §2
# [17] = tested on: umbrella sedge (Cyperus difformis); experiment: Test B flooded paddy test; settings: Cyperus difformis, Flood, 1000 g ai/ha; scale 0 to 100; read-out: Plant response rating, Sedge, Umbrella
# How it was run: as §2
# [18] = pre-emergence, Preemergence, scale 0 to 100 (0 no effect, 100 complete control), read-out: Plant response rating, Barnyardgrass
# [19] = pre-emergence, Preemergence, scale 0 to 100 (0 no effect, 100 complete control), read-out: Plant response rating, Wheat
structure (smiles),measurement,setting,value
"CCOC(=O)c1nc(C2CC2)nc(N)c1Cl [Compound 4, ethyl 6-amino-5-chloro-2-cyclopropyl-4-pyrimidinecarboxylate]",pest or weed control at 62 g/ha,"[1]; post-emergence, Postemergence, scale 0 to 100 (0 no effect, 100 complete control), read-out: Surinam Grass plant response rating",90%
same,pest or weed control at 250 g/ha,"[1]; post-emergence, Postemergence, scale 0 to 100, read-out: Plant response rating, Surinam Grass",90%
same,pest or weed control at 250 g/ha,"[1]; pre-emergence, Preemergence, scale 0 to 100 (0 no effect, 100 complete control), read-out: Plant response rating, Surinam Grass",90%
same,pest or weed control at 62 g/ha,"[1]; pre-emergence, Preemergence, scale 0 to 100, 0 no effect, 100 complete control, read-out: Plant response rating, Surinam Grass",40%
same,pest or weed control at 62 g/ha,"[2]; post-emergence, Postemergence, scale 0 to 100 (0 no effect, 100 complete control), read-out: Barnyardgrass plant response rating",70%
same,pest or weed control at 250 g/ha,"[2]; post-emergence, Postemergence, scale 0 to 100, read-out: Plant response rating, Barnyardgrass",90%
same,pest or weed control at 62 g/ha,[2]; [18],30%
same,pest or weed control at 250 g/ha,[2]; [18],90%
same,pest or weed control at 62 g/ha,"[3]; post-emergence, Postemergence, scale 0 to 100 (0 no effect, 100 complete control), read-out: Cocklebur plant response rating",90%
same,pest or weed control at 250 g/ha,"[3]; post-emergence, Postemergence, scale 0 to 100, read-out: Plant response rating, Cocklebur",100%
same,pest or weed control at 62 g/ha,"[3]; pre-emergence, Preemergence, scale 0 to 100, 0 no effect, 100 complete control, read-out: Plant response rating, Cocklebur",80%
same,pest or weed control at 250 g/ha,"[3]; pre-emergence, Preemergence, scale 0 to 100 (0 no effect, 100 complete control), read-out: Plant response rating, Cocklebur",100%
same,plant injury at 62 g/ha,"[4]; post-emergence, Postemergence, 62 g ai/ha, scale 0 to 100 (0 no effect, 100 complete control), read-out: Corn plant response rating",50%
same,"Corn plant response rating (crop injury, 0 = no effect, 100 = complete kill) at 250 g/ha","[4]; post-emergence, Postemergence, scale 0 to 100",90%
same,"Corn plant response rating (crop injury, 0 = no effect, 100 = complete kill) at 62 g/ha","[4]; pre-emergence, Preemergence, 62 g ai/ha, scale 0 to 100, 0 no effect, 100 complete control",0%
same,"Corn plant response rating (crop injury, 0 = no effect, 100 = complete kill) at 250 g/ha","[4]; pre-emergence, Preemergence, scale 0 to 100 (0 no effect, 100 complete control)",80%
same,pest or weed control at 62 g/ha,"[5]; post-emergence, Postemergence, scale 0 to 100 (0 no effect, 100 complete control), read-out: Crabgrass plant response rating",80%
same,pest or weed control at 250 g/ha,"[5]; post-emergence, Postemergence, scale 0 to 100, read-out: Plant response rating, Crabgrass",90%
same,pest or weed control at 62 g/ha,"[5]; pre-emergence, Preemergence, scale 0 to 100, 0 no effect, 100 complete control, read-out: Plant response rating, Crabgrass",70%
same,pest or weed control at 250 g/ha,"[5]; pre-emergence, Preemergence, scale 0 to 100 (0 no effect, 100 complete control), read-out: Plant response rating, Crabgrass",90%
same,pest or weed control at 62 g/ha,"[6]; post-emergence, Postemergence, scale 0 to 100 (0 no effect, 100 complete control), read-out: Foxtail, Giant plant response rating",80%
same,pest or weed control at 250 g/ha,"[6]; post-emergence, Postemergence, scale 0 to 100, read-out: Plant response rating, Foxtail, Giant",90%
same,pest or weed control at 250 g/ha,"[6]; pre-emergence, Preemergence, scale 0 to 100 (0 no effect, 100 complete control), read-out: Plant response rating, Foxtail, Giant",80%
same,pest or weed control at 62 g/ha,"[6]; pre-emergence, Preemergence, scale 0 to 100, 0 no effect, 100 complete control, read-out: Plant response rating, Foxtail, Giant",10%
same,pest or weed control at 62 g/ha,"[7]; post-emergence, Postemergence, scale 0 to 100 (0 no effect, 100 complete control), read-out: Lambsquarters plant response rating",100%
same,pest or weed control at 250 g/ha,"[7]; post-emergence, Postemergence, scale 0 to 100, read-out: Plant response rating, Lambsquarters",100%
same,pest or weed control at 62 g/ha,"[7]; pre-emergence, Preemergence, scale 0 to 100, 0 no effect, 100 complete control, read-out: Plant response rating, Lambsquarters",90%
same,pest or weed control at 250 g/ha,"[7]; pre-emergence, Preemergence, scale 0 to 100 (0 no effect, 100 complete control), read-out: Plant response rating, Lambsquarters",100%
same,pest or weed control at 62 g/ha,"[8]; post-emergence, Postemergence, scale 0 to 100 (0 no effect, 100 complete control), read-out: Morningglory plant response rating",90%
same,pest or weed control at 250 g/ha,"[8]; post-emergence, Postemergence, scale 0 to 100, read-out: Plant response rating, Morningglory",100%
same,pest or weed control at 62 g/ha,"[8]; pre-emergence, Preemergence, scale 0 to 100, 0 no effect, 100 complete control, read-out: Plant response rating, Morningglory",60%
same,pest or weed control at 250 g/ha,"[8]; pre-emergence, Preemergence, scale 0 to 100 (0 no effect, 100 complete control), read-out: Plant response rating, Morningglory",100%
same,pest or weed control at 62 g/ha,"[9]; post-emergence, Postemergence, scale 0 to 100 (0 no effect, 100 complete control), read-out: Pigweed plant response rating",100%
same,pest or weed control at 250 g/ha,"[9]; post-emergence, Postemergence, scale 0 to 100, read-out: Plant response rating, Pigweed",100%
same,pest or weed control at 62 g/ha,"[9]; pre-emergence, Preemergence, scale 0 to 100, 0 no effect, 100 complete control, read-out: Plant response rating, Pigweed",90%
same,pest or weed control at 250 g/ha,"[9]; pre-emergence, Preemergence, scale 0 to 100 (0 no effect, 100 complete control), read-out: Plant response rating, Pigweed",100%
same,pest or weed control at 62 g/ha,"[10]; post-emergence, Postemergence, scale 0 to 100 (0 no effect, 100 complete control), read-out: Velvetleaf plant response rating",70%
same,pest or weed control at 250 g/ha,"[10]; post-emergence, Postemergence, scale 0 to 100, read-out: Plant response rating, Velvetleaf",100%
same,pest or weed control at 62 g/ha,"[10]; pre-emergence, Preemergence, scale 0 to 100, 0 no effect, 100 complete control, read-out: Plant response rating, Velvetleaf",80%
same,pest or weed control at 250 g/ha,"[10]; pre-emergence, Preemergence, scale 0 to 100 (0 no effect, 100 complete control), read-out: Plant response rating, Velvetleaf",90%
same,plant injury at 62 g/ha,"[11]; post-emergence, Postemergence, scale 0 to 100 (0 no effect, 100 complete control), read-out: Wheat plant response rating",40%
same,plant injury at 250 g/ha,"[11]; post-emergence, Postemergence, scale 0 to 100, read-out: Plant response rating, Wheat",80%
same,plant injury at 62 g/ha,[11]; [19],50%
same,plant injury at 250 g/ha,[11]; [19],70%
same,pest or weed control at 62 g/ha,"[12]; 62 g ai/ha, scale 0 to 100 (0 no effect, 100 complete control), read-out: Blackgrass plant response rating",70%
same,pest or weed control at 250 g/ha,"[12]; 250 g ai/ha, scale 0 to 100, read-out: Plant response rating, Blackgrass",90%
same,pest or weed control at 62 g/ha,"[13]; 62 g ai/ha, scale 0 to 100 (0 no effect, 100 complete control), read-out: Oat, Wild plant response rating",50%
same,pest or weed control at 250 g/ha,"[13]; 250 g ai/ha, scale 0 to 100, read-out: Plant response rating, Oat, Wild",80%
same,pest or weed control at 1000 g/ha,[14],90%
same,pest or weed control at 1000 g/ha,[15],100%
same,plant injury at 1000 g/ha,[16],80%
same,pest or weed control at 1000 g/ha,[17],80%

# — patent US8802597B2, “Herbicidal pyrimidines” (E I du Pont de Nemours and Company, priority 2003, dated 2014)
